Source: patent US20250215039A1, “NUCLEOSIDES FOR TREATING CANCER” (PRIMEFOUR THERAPEUTICS, INC., priority 2022, published 2025)
pIC50: −log10 of the molar value. Where two headings read alike, the source gives them in different places.

Tested on: cancer cell lines
Test: Cancer cell proliferation activity (CellTiterGlo, 72 h)
Assay type: cell-based
Settings: 72 h, 72 h, read-out: IC50 cell proliferation
Procedure: Dose response relationships on cell proliferation was assessed for representative Compounds of the Disclosure on cancer cell lines. Briefly, compound treatment of cells started one day after seeding with a final DMSO concentration of 0.1%, and was performed by nanodrop-dispensing using a Tecan Dispenser. 0.1% DMSO (solvent) and Staurosporine (10 μM) served as high control (100% viability) and low control (0% viability), respectively.
Cells were cultured in the appropriate media. For the assays, cells were seeded in white cell culture-treated flat and clear bottom multiwell plates and incubated at 37° C. overnight before compound was added. After incubation for 72 h at 37° C. at 5% or 10% CO2 dependent on the medium, cell plates were equilibrated to room temperature for one hour, CellTiterGlo reagent (Promega) was added and luminescence was measured approximately an hour later using a luminometer.
Raw data were converted into percent cell viability relative to the high and low control, which were set to 100% and 0%, respectively.
The IC50 values are summarized in Tables 9A-1, Table 10A, and Table 10B.

[1] = Homo sapiens, A204, 72 h, A204 (muscle)
[2] = Homo sapiens, ACHN, ACHN (kidney)
[3] = Homo sapiens, ASPC1, 72 h, ASPC1 (pancreas)
[4] = Homo sapiens, BXPC-3, 72 h, BXPC3 (pancreas)
[5] = Homo sapiens, Caco-2, 72 h, CACO2 (colon)
[6] = Homo sapiens, Granta-519, 72 h, GRANTA-519 (hematological)
[7] = Homo sapiens, Kasumi 1, 72 h, KASUMI-1 (hematological)
[8] = Homo sapiens, LoVo, LOVO (colon)
[9] = Homo sapiens, MDA-MB-231, 72 h, MDAMB231 (breast)
[10] = Homo sapiens, MDA-MB-436, 72 h, MDAMB436 (breast)
[11] = Homo sapiens, MINO, MINO (hematological)
[12] = Homo sapiens, SK-BR-3, 72 h, SKBR3 (breast)

Compound | pIC50 (5637 (bladder)) | pIC50 [1] | pIC50 [2] | pIC50 [3] | pIC50 [4] | pIC50 [5] | pIC50 [6] | pIC50 [7] | pIC50 [8] | pIC50 [9] | pIC50 [10] | pIC50 [11] | pIC50 [12] | pIC50 (NCI-H358M, NCIH358M (lung))
Nc1nc(F)nc2c1ncn2[C@H]1C[C@H](O)[C@](CO)(C2CC2)O1 [Cpd. No. 5, (2R,3S,5R)-5-(6-amino-2-fluoro-9H-purin-9-yl)-2-cyclopropyl-2-(hydroxymethyl)tetrahydrofuran-3-ol] | 5.31 | 5.63 | 5.44 | 5.58 | < 4.30 | 5.11 | < 4.30 | 5.85 | 5.56 | < 4.30 | 5.54 | 5.76 | 5.97 | 5.70
N#C[C@]1(CO)O[C@@H](n2cc(F)c(=O)[nH]c2=O)C[C@@H]1O [Cpd. No. 107, (2R,3S,5R)-5-(5-fluoro-2,4-dioxo-3,4-dihydropyrimidin-1(2H)-yl)-3-hydroxy-2-(hydroxymethyl)tetrahydrofuran-2-carbonitrile] | 5.65 | < 4.30 | 5.42 | 5.80 | 6.00 | < 4.30 | 5.73 | < 4.30 | < 4.30 | < 4.30 | < 4.30 | 5.63 | 6.01 | < 4.30
C#C[C@]1(CO)O[C@@H](n2cc(Cl)c(N)nc2=O)C[C@@H]1O [Cpd. No. 109, 4-amino-5-chloro-1-((2R,4S,5R)-5-ethynyl-4-hydroxy-5-(hydroxymethyl)tetrahydrofuran-2-yl)pyrimidin-2(1H)-one] | 8.00 | 5.40 | 5.90 | 5.53 | 6.30 | 5.48 | 6.04 | 5.77 | 5.60 | 6.40 | 5.46 | 6.43 | 6.01 | 8.00
C[C@]1(CO)O[C@@H](n2cnc3c(O)nc(N)nc32)C[C@@H]1O [Cpd. No. 115, 2-amino-9-((2R,4S,5R)-4-hydroxy-5-(hydroxymethyl)-5-methyltetrahydrofuran-2-yl)-9H-purin-6-ol] | 5.15 | 6.20 | 5.55 | < 4.30 | < 4.30 | < 4.30 | 5.65 | 5.67 | < 4.30 | 5.47 | 5.39 | 5.76 | 5.46 | 5.97
Nc1nc(F)nc2c1ncn2[C@H]1C[C@H](O)[C@](CO)(CC2CC2)O1 [Cpd. No. 130, (2R,3S,5R)-5-(6-amino-2-fluoro-9H-purin-9-yl)-2-(cyclopropylmethyl)-2-(hydroxymethyl)tetrahydrofuran-3-ol] | 5.69 | 5.77 | 5.42 | 6.21 | 5.48 | 5.82 | 5.28 | 6.68 | 6.31 | < 4.30 | 6.28 | 6.52 | 6.92 | 6.03
CC[C@]1(CO)O[C@@H](n2cnc3c(O)nc(N)nc32)C[C@@H]1O [Cpd. No. 223, 2-amino-9-((2R,4S,5R)-5-ethyl-4-hydroxy-5-(hydroxymethyl)tetrahydrofuran-2-yl)-9H-purin-6-ol] | < 4.30 | 5.74 | < 4.30 | < 4.30 | < 4.30 | < 4.30 | 5.85 | 5.84 | < 4.30 | 5.20 | < 4.30 | 5.57 | < 4.30 | 5.53
C#C[C@]1(CO)O[C@@H](n2cnc3c(=O)[nH]c(N)nc32)[C@H](F)[C@@H]1O [compound 95, 2-amino-9-((2R,3R,4R,5R)-5-ethynyl-3-fluoro-4-hydroxy-5-(hydroxymethyl)tetrahydrofuran-2-yl)-1,9-dihydro-6H-purin-6-one] | 5.41 | 5.87 | < 4.30 | 5.34 | < 4.30 | < 4.30 | 5.35 | 5.79 | < 4.30 | 5.77 | 5.41 | 5.60 | < 4.30 | 5.80
O=c1[nH]c(=O)n([C@H]2C[C@H](O)[C@@H](CO)O2)cc1F [compound 185, 5-fluoro-1-((2R,4S,5R)-4-hydroxy-5-(hydroxymethyl)tetrahydrofuran-2-yl)pyrimidine-2,4(1H,3H)-dione] | 9.00 | 7.11 | 8.40 | 8.30 | 8.70 | 6.94 | 8.70 | 7.62 | 8.15 | 7.12 | 8.22 | 8.40 | 9.00 | 7.92
